Measurements published in ChEMBL document CHEMBL1142322, “Synthesis and biological evaluation of novel 8-aminomethylated oroxylin A analogues as alpha-glucosidase inhibitors” (Bioorg Med Chem Lett, 2008).
Active and inactive are the calls of the source. The rule behind the calls is not given here.

Assays:
Rattus norvegicus = species: Rattus norvegicus; experiment: (§1) Inhibition of rat intestinal alpha-glucosidase
Saccharomyces cerevisiae = experiment: (§2) Inhibition of yeast alpha-glucosidase
[1] = as §1
[2] = as §2; set-up: species or system Saccharomyces cerevisiae
[3] = molecular target: Sucrase-isomaltase, intestinal (Homo sapiens, UniProt P14410); experiment: Inhibition of sucrase
Chain of Sucrase-isomaltase, intestinal (P14410 2-1007 limits assumed): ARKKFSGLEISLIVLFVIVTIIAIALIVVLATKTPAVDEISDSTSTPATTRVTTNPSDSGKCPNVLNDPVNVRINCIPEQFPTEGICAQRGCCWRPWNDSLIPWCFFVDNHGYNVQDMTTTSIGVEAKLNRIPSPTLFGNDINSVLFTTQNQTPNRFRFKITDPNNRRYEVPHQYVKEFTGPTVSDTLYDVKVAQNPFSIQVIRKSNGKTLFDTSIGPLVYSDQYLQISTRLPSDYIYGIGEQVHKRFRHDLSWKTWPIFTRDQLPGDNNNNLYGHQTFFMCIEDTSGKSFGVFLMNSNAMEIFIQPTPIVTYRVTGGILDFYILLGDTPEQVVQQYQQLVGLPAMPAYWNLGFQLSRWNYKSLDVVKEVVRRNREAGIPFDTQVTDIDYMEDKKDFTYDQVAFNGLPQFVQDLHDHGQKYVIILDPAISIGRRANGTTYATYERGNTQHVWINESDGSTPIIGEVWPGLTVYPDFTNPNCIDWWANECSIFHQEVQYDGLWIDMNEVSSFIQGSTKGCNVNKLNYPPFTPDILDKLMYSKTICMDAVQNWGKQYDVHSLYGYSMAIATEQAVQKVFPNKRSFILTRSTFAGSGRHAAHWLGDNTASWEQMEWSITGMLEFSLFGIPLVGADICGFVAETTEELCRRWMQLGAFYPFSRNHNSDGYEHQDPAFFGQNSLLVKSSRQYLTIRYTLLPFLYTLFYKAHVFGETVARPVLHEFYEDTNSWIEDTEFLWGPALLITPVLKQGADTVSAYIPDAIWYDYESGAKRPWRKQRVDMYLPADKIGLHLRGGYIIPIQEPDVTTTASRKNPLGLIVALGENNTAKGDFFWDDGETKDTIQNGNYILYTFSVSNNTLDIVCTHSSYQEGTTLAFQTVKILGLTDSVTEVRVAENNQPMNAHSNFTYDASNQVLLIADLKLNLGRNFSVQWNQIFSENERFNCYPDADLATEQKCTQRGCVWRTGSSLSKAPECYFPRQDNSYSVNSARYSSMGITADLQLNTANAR
Chain of Sucrase-isomaltase, intestinal (P14410 1008-1827 limits assumed): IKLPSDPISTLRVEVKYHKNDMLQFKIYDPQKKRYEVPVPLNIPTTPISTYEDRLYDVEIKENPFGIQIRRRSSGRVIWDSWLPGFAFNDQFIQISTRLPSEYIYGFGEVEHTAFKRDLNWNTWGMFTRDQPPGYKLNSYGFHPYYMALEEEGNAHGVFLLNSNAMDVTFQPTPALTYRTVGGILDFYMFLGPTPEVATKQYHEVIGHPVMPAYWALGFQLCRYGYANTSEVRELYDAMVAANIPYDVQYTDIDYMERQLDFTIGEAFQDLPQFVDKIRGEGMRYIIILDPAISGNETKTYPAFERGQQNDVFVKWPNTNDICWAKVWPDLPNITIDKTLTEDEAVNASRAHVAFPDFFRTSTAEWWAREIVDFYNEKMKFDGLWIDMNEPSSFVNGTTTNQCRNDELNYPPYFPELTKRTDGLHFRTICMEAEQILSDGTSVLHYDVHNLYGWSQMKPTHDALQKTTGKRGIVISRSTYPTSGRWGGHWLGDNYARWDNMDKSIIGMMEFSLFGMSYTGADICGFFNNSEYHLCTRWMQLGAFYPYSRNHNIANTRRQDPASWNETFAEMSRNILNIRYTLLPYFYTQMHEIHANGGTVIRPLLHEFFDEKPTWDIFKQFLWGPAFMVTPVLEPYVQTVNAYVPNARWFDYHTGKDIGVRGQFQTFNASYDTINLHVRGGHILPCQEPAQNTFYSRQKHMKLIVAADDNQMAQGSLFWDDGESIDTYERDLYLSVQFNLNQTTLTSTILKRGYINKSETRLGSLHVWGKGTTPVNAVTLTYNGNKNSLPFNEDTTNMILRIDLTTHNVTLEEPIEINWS

Row | Activity (Rattus norvegicus) | Activity (Saccharomyces cerevisiae) | IC50 [1] | IC50 [2] | IC50 [3] | SMILES
1 | inactive | inactive | – | – | – | CCCCNCc1c(O)c(OC)c(O)c2c(=O)cc(-c3ccccc3)oc12
2 | – | – | 6.38 µM | – | – | C[C@H]1O[C@H](O[C@H]2[C@H](O)[C@@H](O)[C@@H](O[C@H]3[C@H](O)[C@@H](O)C(O)O[C@@H]3CO)O[C@@H]2CO)[C@H](O)[C@@H](O)[C@@H]1N[C@H]1C=C(CO)[C@@H](O)[C@H](O)[C@H]1O (some centres undefined) [ACARBOSE]
3 | – | – | 50.7 µM | 167 µM | – | COc1c(O)c(CN2CCCCC2)c2oc(-c3ccccc3)cc(=O)c2c1O
4 | – | – | 76 µM | 150 µM | – | COc1c(O)c(CN2CCOCC2)c2oc(-c3ccccc3)cc(=O)c2c1O
5 | – | – | 376 µM | 371 µM | – | O=c1cc(-c2ccccc2)oc2cc(O)cc(O)c12 [CHRYSIN]
6 | inactive | inactive | – | – | – | COc1c(O)c(CN(C)Cc2ccccc2)c2oc(-c3ccccc3)cc(=O)c2c1O
7 | – | – | – | 49.3 µM | – | OC[C@H]1NC[C@H](O)[C@@H](O)[C@@H]1O [DUVOGLUSTAT]
8 | inactive | inactive | – | – | – | COc1c(O)c(CN2CCCC2)c2oc(-c3ccccc3)cc(=O)c2c1O
9 | inactive | inactive | – | – | – | COc1c(O)c(CN(C)Cc2ccco2)c2oc(-c3ccccc3)cc(=O)c2c1O
10 | – | – | 135 µM | 124 µM | – | COc1c(O)cc2oc(-c3ccccc3)cc(=O)c2c1O [OROXYLIN A]
11 | – | – | 75 µM | 84.4 µM | – | COc1c(O)c(CN2CCN(C(=O)OC(C)(C)C)CC2)c2oc(-c3ccccc3)cc(=O)c2c1O
12 | inactive | inactive | – | – | – | COc1c(O)c(CN(c2ccccc2)c2ccccc2)c2oc(-c3ccccc3)cc(=O)c2c1O
13 | – | – | 215 µM | 203 µM | 52 µM | O=c1cc(-c2ccccc2)oc2cc(O)c(O)c(O)c12 [BAICALEIN]
14 | – | – | 35.4 µM | 98.8 µM | – | COc1c(O)c(CN2CCN(C)CC2)c2oc(-c3ccccc3)cc(=O)c2c1O
15 | inactive | inactive | – | – | – | COc1c(O)c(CNCc2ccccc2)c2oc(-c3ccccc3)cc(=O)c2c1O
